# From US9394300B2, “Quinolone derivatives” (Cadila Healthcare Limited, priority 2012, dated 2016)
# System: C57 Mice
# Assay: Estimating hemoglobin levels in mice
# Type: in vivo
# Conditions: oral once daily for 7 consecutive days at 20 mg/kg, whole blood on 8th day
# Protocol: (2) Protocol for Estimating Hemoglobin Levels in Mice
# C57 mice were administered compounds of the present invention at 10 ml/kg by oral route daily once in the morning for 7 consecutive days at 20 mg/kg. On 8th day animals were bled by retro-orbital puncture under light ether anesthesia in microfuge tubes containing 2% EDTA (10 μl/100 μl of blood) for whole blood. Hemoglobin, Reticulocyte count and RBC count were measured using standard procedures.
row,SMILES,Hemoglobin (g/dL) 20 mg/kg compound
1,"C=CCOn1c(=O)c(C(=O)NCC(=O)O)c(O)c2cc(Oc3ccccc3)ccc21 [Example 8, 2-(1-(allyloxy)-4-hydroxy-2-oxo-6-phenoxy-1,2-dihydroquinoline-3-carboxamido)acetic acid]",15.8 g/dL
2,"C=CCOn1c(=O)c(C(=O)NCC(=O)O)c(O)c2sccc21 [Example 10, 2-(4-(allyloxy)-7-hydroxy-5-oxo-4,5-dihydrothieno[3,2-b]pyridine-6-carboxamido)acetic acid]",13.8 g/dL
3,"CC(C)On1c(=O)c(C(=O)NCC(=O)O)c(O)c2ccccc21 [Example 25, 2-(4-hydroxy-1-isopropoxy-2-oxo-1,2-dihydroquinoline-3-carboxamido)acetic acid]",14.9 g/dL
4,"CC(C)COn1c(=O)c(C(=O)NCC(=O)O)c(O)c2ccccc21 [Example 28, 2-(4-hydroxy-1-isobutoxy-2-oxo-1,2-dihydroquinoline-3-carboxamido)acetic acid]",16.9 g/dL
5,"O=C(O)CNC(=O)c1c(O)c2nccnc2n(OCc2c(F)cccc2F)c1=O [Example 36, 2-(5-((2,6-difluorobenzyl)oxy)-8-hydroxy-6-oxo-5,6-dihydropyrido[2,3-b]pyrazine-7-carboxamido)acetic acid]",14.2 g/dL
6,"CCC(CC)On1c(=O)c(C(=O)NCC(=O)O)c(O)c2ccccc21 [Example 38, 2-(4-hydroxy-2-oxo-1-(pentan-3-yloxy)-1,2-dihydroquinoline-3-carboxamido)acetic acid]",15.8 g/dL
7,"CCCOn1c(=O)c(C(=O)NCC(=O)O)c(O)c2scc(C)c21 [Example 40, 2-(7-hydroxy-3-methyl-5-oxo-4-propoxy-4,5-dihydrothieno[3,2-b]pyridine-6-carboxamido)acetic acid]",16.1 g/dL
8,"Cc1csc2c(O)c(C(=O)NCC(=O)O)c(=O)n(OCc3c(F)cccc3F)c12 [Example 42, 2-(4-((2,6-difluorobenzyl)oxy)-7-hydroxy-3-methyl-5-oxo-4,5-dihydrothieno[3,2-b]pyridine-6-carboxamido)acetic acid]",16.1 g/dL
9,"O=C(O)CNC(=O)c1c(O)c2ccccc2n(OCC2CCCCC2)c1=O [Example 44, 2-(1-(cyclohexylmethoxy)-4-hydroxy-2-oxo-1,2-dihydroquinoline-3-carboxamido)acetic acid]",16.1 g/dL
10,"C[C@H](NC(=O)c1c(O)c2ccccc2n(OCC2CC2)c1=O)C(=O)O [Example 45, (S)-2-(1-(cyclopropylmethoxy)-4-hydroxy-2-oxo-1,2-dihydroquinoline-3-carboxamido)propanoic acid]",15.7 g/dL
11,"O=C(O)CNC(=O)c1c(O)c2cncnc2n(OCc2c(F)cccc2F)c1=O [Example 46, 2-(8-((2,6-difluorobenzyl)oxy)-5-hydroxy-7-oxo-7,8-dihydropyrido[2,3-d]pyrimidine-6-carboxamido)acetic acid]",14.2 g/dL
12,"O=C(N[C@H](C(=O)O)c1ccccc1)c1c(O)c2ccccc2n(OCC2CC2)c1=O [Example 47, (S)-2-(1-(cyclopropylmethoxy)-4-hydroxy-2-oxo-1,2-dihydroquinoline-3-carboxamido)-2-phenylacetic acid]",14.2 g/dL
13,"C=CCOn1c(=O)c(C(=O)NCC(=O)O)c(O)c2ccc(N3CCOCC3)cc21 [Example 48, 2-(1-(allyloxy)-4-hydroxy-7-morpholino-2-oxo-1,2-dihydroquinoline-3-carboxamido)acetic acid]",13.9 g/dL
14,"CC(C)(C)OC(=O)CNC(=O)c1c(O)c2ccccc2n(OCC2CC2)c1=O [Example 49, tert-butyl-2-(1-(cyclopropylmethoxy)-4-hydroxy-2-oxo-1,2-dihydroquinoline-3-carboxamido)acetate]",14.1 g/dL
15,"COC(=O)CNC(=O)c1c(O)c2ccccc2n(OCC2CC2)c1=O [Example 53, methyl-2-(1-(cyclopropylmethoxy)-4-hydroxy-2-oxo-1,2-dihydroquinoline-3-carboxamido)acetate]",15.2 g/dL
16,"CC(C)C[C@H](NC(=O)c1c(O)c2ccccc2n(OCC2CC2)c1=O)C(=O)O [Example 54, (S)-2-(1-(cyclopropylmethoxy)-4-hydroxy-2-oxo-1,2-dihydroquinoline-3-carboxamido)-4-methylpentanoic acid]",13.7 g/dL
17,"CC(C)[C@H](NC(=O)c1c(O)c2ccccc2n(OCC2CC2)c1=O)C(=O)O [Example 55, (S)-2-(1-(cyclopropylmethoxy)-4-hydroxy-2-oxo-1,2-dihydroquinoline-3-carboxamido)-3-methylbutanoic acid]",13 g/dL
18,"O=C(O)CCNC(=O)c1c(O)c2ccccc2n(OCC2CC2)c1=O [Example 56, 3-(1-(cyclopropylmethoxy)-4-hydroxy-2-oxo-1,2-dihydroquinoline-3-carboxamido)propanoic acid]",14.4 g/dL
19,"O=C(N[C@@H](Cc1ccccc1)C(=O)O)c1c(O)c2ccccc2n(OCC2CC2)c1=O [Example 58, (S)-2-(1-(cyclopropylmethoxy)-4-hydroxy-2-oxo-1,2-dihydroquinoline-3-carboxamido)-3-phenylpropanoic acid]",14 g/dL
20,"O=C(O)CNC(=O)c1c(O)c2ccccc2n(OCC(F)(F)F)c1=O [Example 69, 2-(4-hydroxy-2-oxo-1-(2,2,2-trifluoroethoxy)-1,2-dihydroquinoline-3-carboxamido)acetic acid]",15.7 g/dL
21,"O=C(O)CNC(=O)c1c(O)c2ccncc2n(OCC2CC2)c1=O [Example 70, 2-(1-(cyclopropylmethoxy)-4-hydroxy-2-oxo-1,2-dihydro-1,7-naphthyridine-3-carboxamido)acetic acid]",13.9 g/dL
22,"CCCOn1c(=O)c(C(=O)N[C@@H](C)C(=O)O)c(O)c2ccccc21 [Example 73, (S)-2-(4-hydroxy-2-oxo-1-propoxy-1,2-dihydroquinoline-3-carboxamido)propanoic acid]",16.2 g/dL
23,"O=C(O)CNC(=O)c1c(O)c2ccccc2n(OCC/C=C/C2CC2)c1=O [Example 76, 2-(1-((4-cyclopropylbut-3-en-1-yl)oxy)-4-hydroxy-2-oxo-1,2-dihydroquinoline-3-carboxamido)acetic acid]",17.1 g/dL
24,"CCCC(CCC)On1c(=O)c(C(=O)NCC(=O)O)c(O)c2ccccc21 [Example 77, 2-(1-(heptan-4-yloxy)-4-hydroxy-2-oxo-1,2-dihydroquinoline-3-carboxamido)acetic acid]",15.5 g/dL
25,"O=C(O)CNC(=O)c1c(O)c2sccc2n(OCC2CC2)c1=O [Example 79, 2-(4-(cyclopropylmethoxy)-7-hydroxy-5-oxo-4,5-dihydrothieno[3,2-b]pyridine-6-carboxamido)acetic acid]",14.3 g/dL

# System: C57 Mice
# Assay: Estimating circulating EPO release in mice (plasma EPO by mouse EPO ELISA)
# Type: in vivo
# Conditions: oral gavage 10 mg/kg, plasma six hours after administration, EPO in control = 62 ng/mL
# Protocol: (1) Protocol for Estimating Circulating EPO Release in Mice
# C57 Mice were administered various doses (10 mg/kg, 30 mg/kg, 50 mg/kg, 100 mg/kg) of compounds of the present invention by oral gavage at 10 ml/kg. Six hours after compound administration, mice were bled by retro-orbital puncture, under light ether anesthesia in microfuge tubes containing 2% EDTA (10 μl/100 μl of blood). Plasma was separated and analyzed for EPO content by mouse EPO ELISA.
row,SMILES,EPO (ng/mL) oral gavage 10 mg/kg
1,"O=C(O)CNC(=O)c1c(O)c2ccccc2n(OCc2c(F)cccc2F)c1=O [Example 16, 2-(1-((2,6-difluorobenzyl)oxy)-4-hydroxy-2-oxo-1,2-dihydroquinoline-3-carboxamido)acetic acid]",100 ng/mL

# Same assay, conditions: oral gavage 50 mg/kg, plasma six hours after administration, EPO in control = 62 ng/mL
row,SMILES,EPO (ng/mL) oral gavage 50 mg/kg
1,"O=C(O)CNC(=O)c1c(O)c2ccccc2n(OCc2c(F)cccc2F)c1=O [Example 16, 2-(1-((2,6-difluorobenzyl)oxy)-4-hydroxy-2-oxo-1,2-dihydroquinoline-3-carboxamido)acetic acid]",8043 ng/mL
2,"O=C(O)CNC(=O)c1c(O)c2ccc(Cl)cc2n(OCc2c(F)cccc2F)c1=O [Example 20, 2-(7-chloro-1-((2,6-difluorobenzyl)oxy)-4-hydroxy-2-oxo-1,2-dihydroquinoline-3-carboxamido)acetic acid]",3797 ng/mL
3,"O=C(O)CNC(=O)c1c(O)c2ccccc2n(OCc2ccccc2F)c1=O [Example 62, 2-(1-((2-fluorobenzyl)oxy)-4-hydroxy-2-oxo-1,2-dihydroquinoline-3-carboxamido)acetic acid]",398 ng/mL
4,"CCOn1c(=O)c(C(=O)NCC(=O)O)c(O)c2ccccc21 [Example 63, 2-(1-ethoxy-4-hydroxy-2-oxo-1,2-dihydroquinoline-3-carboxamido)acetic acid]",539 ng/mL
5,"COc1ccc(COn2c(=O)c(C(=O)NCC(=O)O)c(O)c3ccccc32)cc1 [Example 67, 2-(4-hydroxy-1-((4-methoxybenzyl)oxy)-2-oxo-1,2-dihydroquinoline-3-carboxamido)acetic acid]",477 ng/mL

# Same assay, conditions: oral gavage 100 mg/kg, plasma six hours after administration, EPO in control = 62 ng/mL
row,SMILES,EPO (ng/mL) oral gavage 100 mg/kg
1,"O=C(O)CNC(=O)c1c(O)c2ccccc2n(OCc2ccccc2)c1=O [Example 1, 2-(1-(benzyloxy)-4-hydroxy-2-oxo-1,2-dihydroquinoline-3-carboxamido)acetic acid]",7118 ng/mL
2,"COn1c(=O)c(C(=O)NCC(=O)O)c(O)c2ccccc21 [Example 11, 2-(4-hydroxy-1-methoxy-2-oxo-1,2-dihydroquinoline-3-carboxamido)acetic acid]",1593 ng/mL
3,"O=C(O)CNC(=O)c1c(O)c2ccccc2n(OCc2ccc(C(F)(F)F)cc2)c1=O [Example 12, 2-(4-hydroxy-2-oxo-1-((4-(trifluoromethyl)benzyl)oxy)-1,2-dihydroquinoline-3-carboxamido)acetic acid]",7056 ng/mL
